Our source for the Emax and IC50 values is patent publication US20260207621A1 (Vividion Therapeutics, Inc., priority 2022, published 2026).

One assay relates to Nrf2. As to the kind of experiment: Nrf2 antagonism assay: ARE luciferase reporter in KYSE-70 cells. The class given is cell-based. The settings on record: Homo sapiens, KYSE-70, KYSE-70 cells, positive Imax corresponds to Nrf2 antagonism, read-out: KYSE70 Cellular ARE Luciferase Imax (%). The essentials:
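KYSE-70 esophageal squamous carcinoma cells carrying Nrf2 W24C (constitutively Nrf2-high) with an ARE-driven luciferase reporter. Loss of luciferase signal reflects Nrf2 antagonism via KEAP1 C151 engagement. IC50 and Imax come from dose-response curves; positive Imax means antagonism.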

In a further assay the target is T1, KEAP1 C151 (Homo sapiens, UniProt Q14145).
T1 construct: treating 500 μg of cell lysate generated from MDA-MB-468 breast cancer cells with DMSO or compound; endogenous in cells; host or cells: MDA-MB-468 breast cancer cell lysate
T1 sequence (Q14145 whole entry): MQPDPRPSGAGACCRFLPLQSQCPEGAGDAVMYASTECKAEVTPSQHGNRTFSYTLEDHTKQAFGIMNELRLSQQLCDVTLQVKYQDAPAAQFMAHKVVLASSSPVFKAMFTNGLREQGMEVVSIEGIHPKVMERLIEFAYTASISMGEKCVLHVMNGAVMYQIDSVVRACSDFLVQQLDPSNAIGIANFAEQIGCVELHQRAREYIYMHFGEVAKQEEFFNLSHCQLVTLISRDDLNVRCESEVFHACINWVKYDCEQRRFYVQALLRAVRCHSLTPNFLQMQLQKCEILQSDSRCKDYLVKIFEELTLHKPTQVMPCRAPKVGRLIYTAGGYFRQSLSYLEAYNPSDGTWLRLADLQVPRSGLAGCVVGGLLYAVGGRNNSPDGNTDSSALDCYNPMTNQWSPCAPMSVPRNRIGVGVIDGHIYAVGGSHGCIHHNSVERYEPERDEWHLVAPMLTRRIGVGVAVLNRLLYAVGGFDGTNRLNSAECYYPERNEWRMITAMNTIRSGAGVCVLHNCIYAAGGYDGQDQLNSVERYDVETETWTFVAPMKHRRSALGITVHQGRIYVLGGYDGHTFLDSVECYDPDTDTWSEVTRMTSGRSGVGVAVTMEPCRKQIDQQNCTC
As to the kind of experiment: Nrf2 TMT measurement: in vitro TE50 for KEAP1 C151 (IA-DTB competition, targeted TMT mass spectrometry) in MDA-MB-468 cell lysate. As to conditions: in vitro target engagement of KEAP1 C151, targeted TMT, read-out: KEAP1_C151 TE50. The format is binding. The protocol:
In vitro TE50 values for KEAP_C151 were obtained by treating 500 μg of cell lysate generated from MDA-MB-468 breast cancer cells with DMSO or compound for 1 hour at room temperature followed by the addition of 200 μM IA-DTB (in DMSO) for one hour at room temperature. Samples were then precipitated by the addition of 8× ice cold acetonitrile and incubated at −80° C. for two hours. Protein was then pelleted by centrifugation (4,200 RPM, 45 min, 4° C.). The pelleted material was resuspended in 9M Urea, 50 mM ammonium bicarbonate and proteins were reduced and alkylated by the addition of DTT and iodoacetamide (10 and 30 mM, respectively). Following reduction and alkylation, samples were exchanged into 2M urea (Zeba spin desalting plates, Thermo Fisher) and digested with Trypsin. IA-DTB labeled peptides were isolated with streptavidin agarose resin. Enriched peptides were eluted by the addition of 50% acetonitrile (ACN) 0.1% Formic Acid (FA) and dried in a SpeedVac vacuum concentrator.
Dried peptides were resuspended in 0.2 M EPPS pH 8.5 and treated with 6.5 μL of 11-plex tandem mass tag (TMT) (8.3 μg/μL in dry ACN) for 2 hours at room temperature. Reactions were quenched by the addition of 6.5 μL of 5% Hydroxylamine. Samples were then combined and desalted on a Biotage Evolute express ABN plate (600-0010-PX01).
Targeted TMT. Targeted TMT measurements were collected using an Orbitrap LumosTribrid Mass Spectrometer (Thermo Scientific) coupled to an UltiMate 3000 Series Rapid Separation LC system and autosampler (Thermo Scientific Dionex). Peptides were eluted onto a custom C18 capillary analytical column (75-μm inner diameter fused silica, packed with Acclaim PepMap C18 resin (Thermo Scientific)) using an Acclaim PepMap 100 (Thermo 164535) loading column, and separated at a flow rate of 1.0 μl min−1. Data were acquired using a specific MS3-based TMT method targeting the peptide containing KEAP1 C151 (C(+324.2)[…], +3 charge state) where MS2 peptide fragmentation is triggered upon detection of the peptide precursor ion. Subsequent MS3 analysis was then performed using pre-selected peptide fragment ions that were isolated for fragmentation using synchronous precursor selection. RAW files were converted to MZXML format and searched with the SEQUEST algorithm using the MassPike software package. TMT quantitation was performed with a filter requiring at least ten summed signal-to-noise for control channels. Quantified signals were used for dose response curve-fitting and IC50 calculation using R's drc package.

In the case of `C=CC(=O)N1CCOCC1c1cc(Cl)cc(-c2cnn(C)c(=O)c2)c1` (single isomer, unassigned) [Compound 53, 5-(3-(4-acryloylmorpholin-3-y1)-5-chlorophenyl)-2-methylpyridazin-3(2H)-one], the Emax in the assay with Nrf2 amounted to 55%. In addition, the IC50 on KEAP1 C151 amounted to 0.066 µM.

Consider `C=CC(=O)N1CCOCC1c1cc(Cl)cc(-c2cnccn2)c1` (single isomer, unassigned) [Compound 54, 1-(3-(3-chloro-5-(pyrazin-2-yl)phenyl)morpholino)prop-2-en-1-one], for which the Emax in the assay on Nrf2 worked out at 70%. The IC50 at KEAP1 C151 was 0.049 µM.

Take `C=CC(=O)N1CCOC[C@H]1c1cc(Cl)cc(-c2ncnc3[nH]cnc23)c1` (single isomer, unassigned) [Compound 58]: in the assay on Nrf2, the Emax stood at 95%. Further, at KEAP1 C151, the IC50 amounted to 0.0305 µM.

`C=CC(=O)N1CCOCC1c1cc(Cl)cc(-c2cc(C(N)=O)ccc2F)c1` (single isomer, unassigned) [Compound 60, 3′-(4-acryloylmorpholin-3-yl)-5′-chloro-6-fluoro-[1,1′-biphenyl]-3-carboxamide]: the Emax with Nrf2 worked out at 70%. Besides, the IC50 at KEAP1 C151 is 0.058 µM.

On to `C=CC(=O)N1CC(C)(C)OC[C@H]1c1cc(Cl)cc(-c2ccc(F)c(C(N)=O)c2)c1` (single isomer, unassigned) [Compound 61], for which the Emax in the assay on Nrf2 turned out to be 89%. Moreover, at KEAP1 C151, the IC50 was determined as 0.0513 µM.

As to `C=CC(=O)N1CCOC[C@H]1c1cc(Cl)cc(-c2ncn(CC(N)=O)n2)c1` (single isomer, unassigned) [Compound 62], in the assay with Nrf2, the Emax was 55%. In addition, on KEAP1 C151, the IC50 was 0.22 µM.

Consider `C=CC(=O)N1CCOCC1c1cc(Cl)cc(-c2ccn3ccnc3n2)c1` (single isomer, unassigned) [Compound 63, 1-(3-(3-chloro-5-(imidazo[1,2-a]pyrimidin-7-yl)phenyl)morpholino)prop-2-en-1-one], for which, in the assay with Nrf2, the Emax worked out at 63%. Further, on KEAP1 C151, the IC50 stood at 0.0033 µM.

On to `C=CC(=O)N1CCOCC1c1cc(Cl)nc(-c2ccn3ccnc3c2)c1` (single isomer, unassigned) [Compound 64, 1-(3-(2-chloro-6-(imidazo[1,2-a]pyridin-7-yl)pyridin-4-yl)morpholino)prop-2-en-1-one], for which, in the assay on Nrf2, the Emax was 75%. The IC50 at KEAP1 C151 came out at 0.001 µM.

Turning to `C=CC(=O)N1CCOCC1c1cc(Cl)nc(-c2ccc(F)c(C(N)=O)c2)c1` (single isomer, unassigned) [Compound 65, 5-(4-(4-acryloylmorpholin-3-yl)-6-chloropyridin-2-y1)-2-fluorobenzamide], the Emax in the assay on Nrf2 worked out at 88%. On KEAP1 C151, the IC50 stood at 0.024 µM.

As for `C=CC(=O)N1CC(C)(C)OC[C@H]1c1cc(Cl)cc(-c2ncnc(N)n2)c1` (single isomer, unassigned) [Compound 66], the Emax with Nrf2 came out at 93%. In addition, at KEAP1 C151, the IC50 is 0.023 µM.

On to `C=CC(=O)N1CCOCC1c1cc(C#N)cc(-c2ccc(F)c(C(N)=O)c2)c1` (single isomer, unassigned) [Compound 67, 3′-(4-acryloylmorpholin-3-yl)-5′-cyano-4-fluoro-[1,1′-biphenyl]-3-carboxamide], for which, in the assay on Nrf2, the Emax is 73%. Besides, on KEAP1 C151, the IC50 came to 0.019 µM.

Regarding `C=CC(=O)N1CCOCC1c1cc(Cl)cc(-c2cnc3cncn3c2)c1` (single isomer, unassigned) [Compound 68, 1-(3-(3-chloro-5-(imidazo[1,5-a]pyrimidin-3-yl)phenyl)morpholino)prop-2-en-1-one], the Emax in the assay on Nrf2 was found to be 72%. In addition, the IC50 at KEAP1 C151 was determined as 0.09 µM.

In the case of `C=CC(=O)N1CC(C)(C)OCC1c1cc(Cl)nc(-c2ccc(F)c(C(N)=O)c2)c1` (single isomer, unassigned) [Compound 69, 5-(4-(4-acryloyl-6,6-dimethylmorpholin-3-yl)-6-chloropyridin-2-yl)-2-fluorobenzamide], the Emax with Nrf2 is 82%. Also, the IC50 at KEAP1 C151 came to 0.0884 µM.

Take `C=CC(=O)N1CCOCC1c1cc(Cl)cc(-c2ccc(C(N)=O)cc2)c1` (single isomer, unassigned) [Compound 70, 3′-(4-acryloylmorpholin-3-yl)-5′-chloro-[1,1′-biphenyl]-4-carboxamide]: the Emax in the assay on Nrf2 was 81%. The IC50 on KEAP1 C151 was determined as 0.054 µM.

With `C=CC(=O)N1CCOCC1c1cc(Cl)cc(-c2cccc(C(N)=O)c2)c1` (single isomer, unassigned) [Compound 71, 3′-(4-acryloylmorpholin-3-yl)-5′-chloro-[1,1′-biphenyl]-3-carboxamide], the Emax in the assay on Nrf2 was found to be 78%. The IC50 on KEAP1 C151 came to 0.03 µM.

On to `C=CC(=O)N1CCOCC1c1cc(Cl)cc(-c2cc(F)cc(C(N)=O)c2)c1` (single isomer, unassigned) [Compound 72, 3′-(4-acryloylmorpholin-3-yl)-5′-chloro-5-fluoro-[1,1′-biphenyl]-3-carboxamide], for which the Emax in the assay on Nrf2 was found to be 80%. Further, on KEAP1 C151, the IC50 turned out to be 0.027 µM.

Regarding `C=CC(=O)N1CCOCC1c1cc(Cl)cc(-c2cccc(C(N)=O)c2F)c1` (single isomer, unassigned) [Compound 73, 3′-(4-acryloylmorpholin-3-yl)-5′-chloro-2-fluoro-[1,1′-biphenyl]-3-carboxamide], the Emax in the assay with Nrf2 turned out to be 74%. At KEAP1 C151, the IC50 was 0.056 µM.

As for `C=CC(=O)N1CCN(C(C)=O)C[C@H]1c1cc(Cl)cc(-c2ncnc(N)n2)c1` (single isomer, unassigned) [Compound 74], in the assay with Nrf2, the Emax is 89%. Further, the IC50 on KEAP1 C151 was determined as 0.022 µM.

As to `C=CC(=O)N1CC2(CC2)OCC1c1cc(Cl)cc(-c2ccc(F)c(C(N)=O)c2)c1` (single isomer, unassigned) [Compound 76, 3′-(7-acryloyl-4-oxa-7-azaspiro[2.5]octan-6-yl)-5′-chloro-4-fluoro-[1,1′-biphenyl]-3-carboxamide], the Emax with Nrf2 is 90%. Also, the IC50 at KEAP1 C151 is 0.024 µM.

On to `C=CC(=O)N1CCOCC1c1cc(Cl)cc(-c2nccc(C(N)=O)n2)c1` (single isomer, unassigned) [Compound 77, 2-(3-(4-acryloylmorpholin-3-yl)-5-chlorophenyl)pyrimidine-4-carboxamide], for which the Emax in the assay with Nrf2 came to 82%. The IC50 on KEAP1 C151 was 0.086 µM.

Regarding `C=CC(=O)N1CC(C)(C)OCC1c1cc(Cl)nc(-c2ccn3ccnc3c2)c1` (single isomer, unassigned) [Compound 78, 1-(5-(2-chloro-6-(imidazo[1,2-a]pyridin-7-yl)pyridin-4-yl)-2,2-dimethylmorpholino)prop-2-en-1-one], the Emax in the assay with Nrf2 came to 78%. Besides, at KEAP1 C151, the IC50 was 0.018 µM.

Regarding `C=CC(=O)N1CCN(C(C)=O)C[C@H]1c1cc(Cl)cc(-c2ccc(F)c(C(N)=O)c2)c1` (single isomer, unassigned) [Compound 79], the Emax in the assay on Nrf2 came out at 85%. Besides, the IC50 on KEAP1 C151 came to 0.018 µM.

Turning to `C=CC(=O)N1CCOC[C@H]1c1cc(Cl)cc(-c2cc(N)ncn2)c1` (single isomer, unassigned) [Compound 80], in the assay with Nrf2, the Emax came out at 94%. The IC50 on KEAP1 C151 is 0.29 µM.

With `C=CC(=O)N1CCN(C(C)=O)C[C@H]1c1cc(Cl)cc(-c2ccnc(N)n2)c1` (single isomer, unassigned) [Compound 81], the Emax in the assay with Nrf2 came to 85%. Moreover, the IC50 on KEAP1 C151 stood at 0.012 µM.

Turning to `C=CC(=O)N1CCOC[C@H]1c1cc(Cl)cc(-c2ccc3c(c2)C(=O)NC3)c1` (single isomer, unassigned) [Compound 82], the Emax in the assay with Nrf2 was 77%. Besides, at KEAP1 C151, the IC50 was less than 0.01 µM.

Consider `C=CC(=O)N1CC2(CC2)OCC1c1cc(Cl)cc(-c2ccnc(C)n2)c1` (single isomer, unassigned) [Compound 83, 1-(6-(3-chloro-5-(2-methylpyrimidin-4-yl)phenyl)-4-oxa-7-azaspiro[2.5]octan-7-yl)prop-2-en-1-one], for which the Emax with Nrf2 is 86%. Also, at KEAP1 C151, the IC50 was determined as 0.089 µM.

Consider `C=CC(=O)N1CC2(CC2)OCC1c1cc(Cl)cc(-c2ccnc(N)n2)c1` (single isomer, unassigned) [Compound 84, 1-(6-(3-(2-aminopyrimidin-4-y1)-5-chlorophenyl)-4-oxa-7-azaspiro[2.5]octan-7-yl)prop-2-en-1-one], for which, in the assay on Nrf2, the Emax was 93%. Moreover, the IC50 on KEAP1 C151 is 0.047 µM.
